Results on 15 molecules are retold here after ChEMBL document CHEMBL5346908, “Recent advances of mitochondrial complex I inhibitors for cancer therapy: Current status and future perspectives” (Eur J Med Chem, 2023).

Series [1] concerns MDA-MB-435. Kind of series: Antiproliferative activity against human MDA-MB-435 cells assessed as reduction in cell viability incubated for 72 hrs by cell-titer glo assay. The conditions noted are these: MDA-MB-435, 72 h. Type of series: functional, cell-based.
In series [2] the test system is MDA-MB-231. In words: Antiproliferative activity against human MDA-MB-231 cells assessed as reduction in cell viability incubated for 72 hrs by cell-titer glo assay. The format is functional, cell-based. The settings on record: MDA-MB-231, 72 h.
The nature of series [3]: Inhibition of NADH-ubiquinone oxidoreductase (unknown origin) binding to ETC complex 1. Also on record: species or system Homo sapiens.
The nature of series [4]: Antiproliferative activity against mouse L929 cells assessed as inhibition of cell growth incubated for 5 days by MTT assay. Type of series: toxicity, cell-based.
The test system of series [5] is HCT-116. Kind of series: Antiproliferative activity against human HCT-116 cells assessed as reduction in cell viability. The format is functional, cell-based.
Series [6] has as its system HCT-116. In words: Inhibition of mitochondrial respiration in human HCT-116 cells assessed as oxygen consumption rate incubated for 1 hr by Seahorse XF24 extracellular flux analyzer. The format is functional, cell-based. The settings on record: HCT-116, 1 h.
The test system of series [7] is MDA-MB-231. Kind of series: Inhibition of mitochondrial respiration in human MDA-MB-231 cells assessed as oxygen consumption rate incubated for 1 hr by Seahorse XF24 extracellular flux analyzer. Type of series: functional, cell-based. The settings on record: MDA-MB-231, 1 h.
Series [8] can be described thus: Antiproliferative activity against mouse TA3/Ha cells assessed as reduction in cell growth. The format is functional, cell-based.
Series [9] relates to NCI-H460. In words: Antiproliferative activity against human NCI-H460 cells assessed as reduction in cell viability incubated for 48 hrs by cell titer glow assay. The settings on record: NCI-H460, 48 h. The format is functional, cell-based.
In series [10] the test system is Melanoma cell line. Kind of series: Antiproliferative activity against human melanoma cells assessed as reduction in cell viability incubated for 72 hrs by CellTiter-Fluor reagent based fluorescence analysis. The format is functional.
In series [11] the test system is KG-1. Kind of series: Antiproliferative activity against human KG-1 cells assessed as cell growth inhibition incubated for 72 hrs by MTT assay. The conditions noted are these: KG-1, 72 h. The format is functional, cell-based. In general terms: Tetrazolium dyes change colour on reduction, which living cells bring about.
The subject of series [12] is THP-1. In words: Antiproliferative activity against human THP-1 cells assessed as cell growth inhibition incubated for 72 hrs by MTT assay. The format is functional, cell-based. The conditions noted are these: THP-1, 72 h.
Series [13] concerns HL-60. Kind of series: Antiproliferative activity against human HL-60 cells assessed as cell growth inhibition incubated for 72 hrs by MTT assay. The format is functional, cell-based. The conditions noted are these: HL-60, 72 h.
The test system of series [14] is NSCLC. Kind of series: Antitumor activity against human NSCLC cells xenografted in orthotopic lung tumor mouse model assessed as reduction in tumor growth incubated for 8 weeks. Type of series: functional. The settings on record: 1344 h. In general terms: In xenograft studies the graft and the host belong to different species.
The test system of series [15] is NSCLC. Kind of series: Antiproliferative activity against human NSCLC cells assessed as reduction in cell viability incubated for 72 hrs by MTT assay. Type of series: functional, cell-based.
Series [16] is described as follows: Antiproliferative activity against human DFCI024 cells assessed as reduction in cell growth incubated for 72 hrs by Cell-titer glo assay. Type of series: functional, cell-based. The conditions noted are these: DFCI024, 72 h.
Series [17] deals with NCI-H1581. Kind of series: Antiproliferative activity against human NCI-H1581 cells assessed as reduction in cell growth incubated for 72 hrs by Cell-titer glo assay. The format is functional, cell-based. The settings on record: NCI-H1581, 72 h.
In series [18] the test system is NCI-H157. Kind of series: Antiproliferative activity against human NCI-H157 assessed as reduction in cell growth incubated for 72 hrs by Cell-titer glo assay. The settings on record: NCI-H157, 72 h. The format is functional, cell-based.
Series [19] deals with NCI-H1693. In words: Antiproliferative activity against human NCI-H1693 assessed as reduction in cell growth incubated for 72 hrs by Cell-titer glo assay. The settings on record: NCI-H1693, 72 h. The format is functional, cell-based.
Series [20] in a line: Half life in tumor of BALB/c mouse model xenografted with 4T1 cells at 100 mg/kg, ip measured after 4 hrs. Type of series: ADME, organism-based.
Series [21] concerns A-375. In words: Antiproliferative activity against human A-375 cells assessed as inhibition of cell growth measured after 72 hrs by CCK8 assay. Type of series: functional, cell-based. The conditions noted are these: A-375, 72 h.
For series [22], the system named is 4T1. In words: Antitumor activity against mouse 4T1 cells xenografted in BALB/c mouse model assessed as peak tumor level at 100 mg/kg, ip measured after 4 hrs. Type of series: functional.
Series [23] is described as follows: Half life in BALB/c mouse plasma at 100 mg/kg, ip. Type of series: ADME, organism-based.
The subject of series [24] is 4T1. Kind of series: Antitumor activity against mouse 4T1 cells xenografted in BALB/c mouse model assessed as peak plasma level at 100 mg/kg, ip. Type of series: functional.
The nature of series [25]: Oral bioavailability in human. The format is ADME, organism-based. The conditions noted are these: in vivo.
The target of series [26] is T1, Receptor tyrosine-protein kinase erbB-2 (Homo sapiens, UniProt P04626). In words: Inhibition of ERBB2 (unknown origin) in human NCI-H1975 cells assessed as increase in mitochondrial ROS level incubated for 48 hrs by Western blot analysis. (In general: In western blotting, separated proteins are transferred to a membrane and probed.)
Series [27] concerns the target T1, Receptor tyrosine-protein kinase erbB-2. In words: Inhibition of ERBB2 (unknown origin).
The nature of series [28]: Cytotoxicity against Trichoplusia ni BTI-TN-5B1-4 cells assessed as reduction cell proliferation incubated for 24 hrs by MTT assay. The format is toxicity, cell-based.
Series [29] deals with HT-29. Kind of series: Inhibition of colony formation of human HT-29 cells incubated for 7 days in absence of glucose by crystal violet staining based analysis. Type of series: functional, cell-based. The settings on record: HT-29, 168 h.
For series [30], the system named is HEK293. Kind of series: Cytotoxicity against human HEK293 cells assessed as reduction in cell proliferation incubated for 24 hrs by MTT assay. Type of series: functional, cell-based. The settings on record: HEK293, 24 h.
Series [31] deals with HepG2. In words: Cytotoxicity against human HepG2 cells assessed as reduction cell proliferation incubated for 24 hrs by MTT assay. The format is functional, cell-based. The settings on record: HepG2, 24 h.
The test system of series [32] is HT-29. Kind of series: Inhibition of colony formation of human HT-29 cells assessed as reduction in colonies incubated for 7 days by crystal violet staining based analysis. The settings on record: HT-29, 168 h. The format is functional, cell-based.
In series [33] the test system is L1210. Kind of series: Antitumor activity against mouse L1210 cells xenografted in […] model assessed as prolongation of life span relative to control. Type of series: functional.
Series [34] is described as follows: Inhibition of mitochondrial respiration in Sprague-Dawley rat liver. Type of series: functional, tissue-based.
For series [35], the system named is MCF7. Kind of series: Antiproliferative activity against human MCF7 cells assessed as reduction in cell viability incubated for 72 hrs by MTT assay. The settings on record: MCF7, 72 h. Type of series: functional, cell-based.

SMILES strings stand for the structures. pEC50, pIC50, pKi: −log10 of the molar value. Values after ≈ are worked out from the molar mass of the structure shown.

T1 sequence (P04626 whole entry): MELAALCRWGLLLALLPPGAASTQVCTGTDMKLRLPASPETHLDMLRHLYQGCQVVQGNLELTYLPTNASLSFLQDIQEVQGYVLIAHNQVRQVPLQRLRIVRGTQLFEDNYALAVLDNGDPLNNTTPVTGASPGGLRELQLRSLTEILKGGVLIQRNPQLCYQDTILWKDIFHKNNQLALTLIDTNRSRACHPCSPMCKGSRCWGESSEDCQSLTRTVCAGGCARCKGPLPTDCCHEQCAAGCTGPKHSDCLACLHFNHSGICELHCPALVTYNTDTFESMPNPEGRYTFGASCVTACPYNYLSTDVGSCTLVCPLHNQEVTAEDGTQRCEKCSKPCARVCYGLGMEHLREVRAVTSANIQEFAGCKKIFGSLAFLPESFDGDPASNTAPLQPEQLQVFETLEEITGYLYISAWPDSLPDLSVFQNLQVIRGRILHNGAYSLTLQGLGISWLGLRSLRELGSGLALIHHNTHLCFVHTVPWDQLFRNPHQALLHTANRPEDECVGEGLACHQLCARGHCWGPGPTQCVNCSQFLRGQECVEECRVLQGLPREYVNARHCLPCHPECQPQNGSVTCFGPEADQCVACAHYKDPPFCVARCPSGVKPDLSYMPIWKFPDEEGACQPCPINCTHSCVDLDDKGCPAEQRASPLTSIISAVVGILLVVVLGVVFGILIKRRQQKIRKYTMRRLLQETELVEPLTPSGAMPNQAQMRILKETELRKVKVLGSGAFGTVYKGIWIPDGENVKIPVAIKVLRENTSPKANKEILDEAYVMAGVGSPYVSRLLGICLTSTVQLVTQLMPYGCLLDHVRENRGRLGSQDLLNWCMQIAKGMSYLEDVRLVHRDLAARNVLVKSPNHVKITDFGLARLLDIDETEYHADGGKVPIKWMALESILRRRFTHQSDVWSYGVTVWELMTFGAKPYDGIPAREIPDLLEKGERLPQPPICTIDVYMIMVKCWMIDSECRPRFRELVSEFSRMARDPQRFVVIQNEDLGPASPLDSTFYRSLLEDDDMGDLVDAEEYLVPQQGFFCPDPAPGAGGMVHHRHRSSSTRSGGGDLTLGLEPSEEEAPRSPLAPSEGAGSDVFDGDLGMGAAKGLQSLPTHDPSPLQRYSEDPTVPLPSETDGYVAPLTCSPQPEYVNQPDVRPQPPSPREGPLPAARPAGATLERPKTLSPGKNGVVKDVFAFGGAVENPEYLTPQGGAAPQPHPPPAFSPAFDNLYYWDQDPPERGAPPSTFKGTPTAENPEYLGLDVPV

As a reminder, the pIC50 is −log10 of the IC50, conventionally taken in molar units. What is called pKi is the negative decadic logarithm of the Ki, by convention in mol/L. Turning to `Cc1ccc(Sc2cccc3[nH]c4nc(N)nc(N)c4c23)cc1`, the pIC50 is 4.92 in series [1] and 5.16 in series [2]. For the same molecule, in series [3], the pKi was 6.08.
The IC50 is the midpoint of a concentration-inhibition curve. In the case of `Cc1cc(OCc2nnc(SC3CCCC3)n2-c2cccnc2)ccc1-c1ccc(S(C)(=O)=O)cc1`, the half-inhibitory concentration (IC50) at 5 days in series [4] turned out to be 1.3 nM. Also, the pIC50 in series [5] was 6.35.
As for `O[C@@H](CNC[C@H](O)[C@H]1CCc2cc(F)ccc2O1)[C@@H]1CCc2cc(F)ccc2O1`, the values for the pIC50 in series [6] and in series [7] were 6.05 and 5.68, respectively.
Regarding `CC1(C)C=CC(=O)c2c(O)c3c(c(O)c21)CC=CC3`, in [8], the pIC50 is 4.89.
A word on the pEC50: it is the EC50 on a negative log10 scale, so that one unit is a factor of ten. As for `Cc1cc(-c2nc(-c3ccc(OC(F)(F)F)cc3)no2)nn1Cc1ccnc(N2CCN(C3CC3)CC2)c1`, the pEC50 in [9] is 8.52. For the same molecule, the pIC50 in [10] is 8.70.
As for `Cc1nc(-c2nc(-c3ccc(OC(F)(F)F)cc3)no2)nn1Cc1cccc(N2CCC(S(C)(=O)=O)CC2)c1`, the pEC50 in series [11], in series [12] and in [13] was 8.52 in each case.
By ED50 is commonly meant the dose that gives a 50% effect, or the effect in half of the subjects. For the molecule `O=C(NCCCCCCCCCC[P+](c1ccccc1)(c1ccccc1)c1ccccc1)c1nn(Cc2ccc(Cl)cc2Cl)c2ccccc12`, in [14], the ED50 came to 7.5 µmol/kg. Further, in series [15], the negative logarithm of the IC50 (pIC50) is 6.13.
`CCCCCn1c(=O)[nH]c2cc(C(=O)N3CCN(c4ccc([N+](=O)[O-])cc4)CC3)ccc2c1=O`: the pIC50 in series [16], in series [17], in [18] and in [19] was 6.70 in each case.
As a reminder, the half-life is how long it takes for the measured level to halve. High values mean slow loss, low ones fast loss. As for `CCCCc1ccc(N)c(C)c1`, the half-life in [20] worked out at 1.2 h; in [23] it was 1.1 h. For the same molecule, the pIC50 in [21] was 4.00. The Activity in series [22] was determined as 11 µM; in series [24], 25 µM.
The term bioavailability denotes the share of a dose that reaches the circulation, judged against a reference dose that is usually intravenous. Read a low bioavailability as little systemic uptake. `N=C(NC(=N)N1CCCC1)Nc1ccc(OC(F)(F)F)cc1` [LIXUMISTAT] returned a bioavailability in series [25] of 72.9%.
In the case of `FC(F)(F)c1ccc(/C=C/c2nc(COc3ccc(CCCCn4ccnn4)cc3)co2)cc1` [MUBRITINIB], the pIC50 in [26] was 7.10; in series [27], 7.29.
With `C/C=C(\C)[C@H](O)[C@H](C)/C=C(C)/C=C/C/C(C)=C/Cc1nc(OC)c(OC)c(O)c1C` [PIERICIDIN A], the IC50 at 24 h in series [28] was found to be 61 nM. The pIC50 in [29] is 8.11; in series [30], 3.64; in [31] it was 3.63; in series [32] it was 8.19.
In the case of `CCCCCCCCCC[C@H](O)[C@H]1CC[C@H]([C@H]2CC[C@H]([C@H](O)CCCCCCCCCC[C@@H](O)CC3=C[C@H](C)OC3=O)O2)O1` [REL-SQUAMOCIN-G], the Activity in [33] was 38%. For the same molecule, the negative logarithm of the IC50 (pIC50) in series [34] was 8.02.
With `C=C(C)[C@H]1Cc2c(ccc3c2O[C@@H]2COc4cc(OC)c(OC)cc4[C@@H]2C3=O)O1` [ROTENONE], the IC50 at 5 days in series [4] stood at 16.1 nM. This molecule had a pIC50 in series [34] of 7.71.
As for `CCCCCC[C@H](O)CCC[C@H](O)[C@H]1CC[C@H]([C@H]2CC[C@H]([C@H](O)CCCCCCCCCCCCC3=C[C@H](C)OC3=O)O2)O1` [SQUAMOCIN], the IC50 in series [35] came out at 0.8 ng/mL (≈ 1.28 nM).
